Laboratory results from patent US20240350402A1, “TOPICAL DRUG TREATMENT TO PREVENT OR REDUCE CORNEAL SCARRING” (The Cleveland Clinic Foundation, priority 2021, published 2024).

Columns and labels:
[1] = test system: TGF beta-1; experiment: DMR model: IHC TGF beta-1 in posterior stroma; assay type: in vivo, rabbit; details: topical and/or oral losartan, one month
Procedure: The rabbits had general anaesthesia with 30 mg/kg ketamine hydrochloride and 5 mg/kg xylazine by IM injection. In addition, topical proparacaine hydrochloride 1% (Alcon, Ft Worth, TX, USA) was applied to each eye prior to the surgery. One cornea selected at random in each group either had sham surgery without Descemetorhexis or an 8 mm diameter central Descemet's membrane-endothelial excision. The time point of one month after surgery was selected for the study because myofibroblasts and fibrosis in the posterior cornea was maximal at this time point in a prior time course Descemetorhexis study (Sampaio et al., 2021). Descemetorhexis was performed as described in the prior study (Sampaio et al., 2021). Briefly, a wire lid speculum was placed into one eye of each rabbit and an 8 mm diameter gentian violet circle was marked on the epithelial surface for reference. A limbal entry incision was created with a 1.6 mm blade (Bausch and Lomb, Rochester, NY, USA) and 0.3 ml Healon OVD (Abbott Medical Optics Inc. Santa Ana, CA, USA) was injected into the anterior chamber. A reversed Sinskey hook (Katena, Denville, New Jersey, USA) was placed into the anterior chamber and an 8 mm diameter disc of Descemet's membrane and endothelium was excised underlying the 8 mm area previously marked on the anterior corneal surface, without a subsequent endothelial corneal transplant. […]

[2] = test system: myofibroblast marker α-SMA; experiment: -9D PRK model: IHC stromal α-SMA pixels (ImageJ); assay type: in vivo, rabbit; details: topical 0.8 mg/ml losartan six times a day, one month
Procedure: Animal procedures were approved by the Institutional Animal Care and Use Committee at the Cleveland Clinic Foundation and animals were treated in accordance with the tenets of the Association for Research in Vision and Ophthalmology Statement for the Use of Animals in Ophthalmic and Vision Research. Twelve female 12- to 15-week-old New Zealand white rabbits weighing 2.5 to 3 kg each were included. Starting 24 hours prior to surgery and continuing 5 days after PRK, all rabbits received 60 mL children's liquid acetaminophen (Johnson & Johnson, Ft. Washington, PA, USA) per 1 L of drinking water. One eye of each rabbit was randomly selected to have −9.0 D (on myopia scale) PRK and received 2 drops of topical 1% proparacaine hydrochloride (Alcon, Fort Worth, TX, USA) prior to the surgery. […]
All images were converted to 300 DPI 900 pixel width×672 pixel height images with Photoshop 22.1.1 (Adobe, San Jose, CA). The mean pixels of stromal α-SMA or stromal collagen type IV were determined in a 900-pixel wide×235-pixel high rectangle (for either α-SMA or collagen type IV quantitation) with ImageJ in three sections for each cornea using the image panels showing only the color of interest. […]

## CCCCc1nc(Cl)c(CO)n1Cc1ccc(-c2ccccc2-c2nn[nH]n2)cc1 [losartan]
[1]
  levels of TGF beta-1 in the posterior stroma or at the posterior stromal surface compared to vehicle-treated corneas: No effect
[2]
  total pixels of α-SMA staining within the analyzed rectangle (mean±SEM): 120±60 pixels
